Reference: US10273228B2, “Hepatitis B viral assembly effectors” (Indiana University Research and Technology Corporation, priority 2015, dated 2019)
Like-named read-outs stand apart in the source and are kept apart here.

Key:
[1] = tested on: HBV viral load, AD38 cells; test: Activity of test compounds on viral production from AD38 cells (viral load by quantitative PCR of the core sequence in supernatant); assay type: cell-based, Hepatitis B virus; settings: 10 μM compound, 6 days at 37° C., vs DMSO control wells; for activity at 10 µM: Hepatitis B virus, 144 h, read-out: AD38 Viral Load (CpAM/DMSO %) at 10 μM
Protocol: (§1) AD38 cells were then re-suspended with 10 mL of treatment medium and counted. Wells of a collagen coated 96-well NUNC microtiter plate were seeded at 50,000/well in 180 μL of treatment medium, and 20 μL of either 10% DMSO (Control) or a 10× solution of test compound in 10% DMSO in treatment media was added for a final compound concentration 1, 3, or 10 μM (1.0% final [DMSO]) and plates were incubated for 6 days at 37° C.
Subsequently viral load production was assayed by quantitative PCR of the core sequence. Briefly, 5 μL of clarified supernatant was added to a PCR reaction mixture that contained forward primers HBV-f 5′-CTGTGCCTTGGGTGGCTTT-3′, Reverse primers HBV-r 5′-[…]-3′ and Fluorescent TaqMan™ Probes HBV-probe 5′-FAM/AGCTCCAAA/ZEN/[…]/3IABkFQ-3′ in Quanta Biosciences PerfeCTa® qPCR Toughmix®, and was subsequently on an Applied Biosystems VIIA7 in a final volume of 20 μL. The PCR mixture was incubated at 45° C. for 5 minutes, then 95° C. for 10 min, followed by 40 cycles of 10 seconds at 95° C. and 20 seconds at 60° C. Viral load was quantitated against known standards by using ViiA™ 7 Software. Viral load in the supernatant from wells with treated cells were compared against viral load in supernatant from DMSO control wells (≥3 per plate).

AD38 cells = test: AD38 viability normalized to DMSO control; assay type: cell-based; settings: 10 μM compound, vs DMSO control
Protocol: as §1

With `O=S(=O)(c1ccc(C(F)(F)F)cc1)N1CCN(c2nc(Nc3ccc(F)cc3)cc(-n3cnnc3)n2)CC1` [Compound 1315] the activity at 10 µM ([1]; Table 6) was 89% and the “AD38 Viability Normalized Result (CPAM/DMSO %) at 10 μM” value (AD38 cells; Table 6) was 98%.

`N#Cc1ccc(Nc2cc(C(F)(F)F)nc(N3CCN(S(=O)(=O)c4ccc(OC(F)(F)F)cc4)CC3)n2)cc1` [Compound 1332] was tested, and the activity at 10 µM ([1]; Table 9) was 13% and the “AD38 Viability Normalized Result (CPAM/DMSO %) at 10 μM” value (AD38 cells; Table 9) was 85%.

In the case of `CCOc1ccc(S(=O)(=O)N2CCN(c3nc(Nc4ccc(C#N)cc4)cc(C(F)(F)F)n3)CC2)cc1` [Compound 1333], the activity at 10 µM ([1]; Table 9) is reported as 2% and the “AD38 Viability Normalized Result (CPAM/DMSO %) at 10 μM” value (AD38 cells; Table 9) is reported as 85%.

`CCCCOc1ccc(S(=O)(=O)N2CCN(c3nc(Nc4ccc(C#N)cc4)cc(C(F)(F)F)n3)CC2)cc1` [Compound 1334] was tested, and the activity at 10 µM ([1]; Table 9) was 2% and the “AD38 Viability Normalized Result (CPAM/DMSO %) at 10 μM” value (AD38 cells; Table 9) was 102%.

With `CCOc1ccc(S(=O)(=O)N2CCN(c3nc(C)cc(Nc4ccc(F)cc4)n3)CC2)cc1` [Compound 1336] the activity at 10 µM ([1]; Table 9) was 59% and the “AD38 Viability Normalized Result (CPAM/DMSO %) at 10 μM” value (AD38 cells; Table 9) was 103%.

`CCCCOc1ccc(S(=O)(=O)N2CCN(c3nc(C)cc(Nc4ccc(F)cc4)n3)CC2)cc1` [Compound 1337] was tested, and the activity at 10 µM ([1]; Table 9) was 34% and the “AD38 Viability Normalized Result (CPAM/DMSO %) at 10 μM” value (AD38 cells; Table 9) was 93%.

`Cc1ccc(S(=O)(=O)N2CCN(c3nc(C)cc(Nc4ccc(F)cc4)n3)CC2)cc1` [Compound 1339] was tested, and the activity at 10 µM ([1]; Table 9) was 50% and the “AD38 Viability Normalized Result (CPAM/DMSO %) at 10 μM” value (AD38 cells; Table 9) was 93%.

For `O=S(=O)(c1ccc(OC(F)(F)F)cc1)N1CCN(c2nc(Nc3ccc(F)cc3)cc(C(F)(F)F)n2)CC1` [Compound 1340], the activity at 10 µM ([1]; Table 9) was 1% and the “AD38 Viability Normalized Result (CPAM/DMSO %) at 10 μM” value (AD38 cells; Table 9) was 88%.

`CCOc1ccc(S(=O)(=O)N2CCN(c3nc(Nc4ccc(F)cc4)cc(C(F)(F)F)n3)CC2)cc1` [Compound 1341] was tested, and the activity at 10 µM ([1]; Table 9) was 1% and the “AD38 Viability Normalized Result (CPAM/DMSO %) at 10 μM” value (AD38 cells; Table 9) was 95%.

For `CCCCOc1ccc(S(=O)(=O)N2CCN(c3nc(Nc4ccc(F)cc4)cc(C(F)(F)F)n3)CC2)cc1` [Compound 1342], the activity at 10 µM ([1]; Table 9) was 17% and the “AD38 Viability Normalized Result (CPAM/DMSO %) at 10 μM” value (AD38 cells; Table 9) was 107%.

`O=S(=O)(c1ccccc1)N1CCN(c2nc(Nc3ccc(F)cc3)cc(C(F)(F)F)n2)CC1` [Compound 1343] was tested, and the activity at 10 µM ([1]; Table 9) was 6% and the “AD38 Viability Normalized Result (CPAM/DMSO %) at 10 μM” value (AD38 cells; Table 9) was 31%.

In the case of `Cc1ccc(S(=O)(=O)N2CCN(c3nc(Nc4ccc(F)cc4)cc(C(F)(F)F)n3)CC2)cc1` [Compound 1344], the activity at 10 µM ([1]; Table 9) is reported as 2% and the “AD38 Viability Normalized Result (CPAM/DMSO %) at 10 μM” value (AD38 cells; Table 9) is reported as 0%.

In the case of `O=S(=O)(c1ccc(F)cc1)N1CCN(c2nc(Nc3ccc(F)cc3)cc(C(F)(F)F)n2)CC1` [Compound 1345], the activity at 10 µM ([1]; Table 9) is reported as 14% and the “AD38 Viability Normalized Result (CPAM/DMSO %) at 10 μM” value (AD38 cells; Table 9) is reported as 77%.

With `Cc1cc(Nc2ccc(F)cc2)nc(N2CCN(S(=O)(=O)c3ccc(F)cc3)CC2)n1` [Compound 1347] the activity at 10 µM ([1]; Table 9) was 2% and the “AD38 Viability Normalized Result (CPAM/DMSO %) at 10 μM” value (AD38 cells; Table 9) was 7%.

For `COc1ccc(S(=O)(=O)N2CCN(c3nc(C)cc(Nc4ccc(F)cc4)n3)CC2C)cc1` (stereo not drawn) [Compound 1348], the activity at 10 µM ([1]; Table 9) was 5% and the “AD38 Viability Normalized Result (CPAM/DMSO %) at 10 μM” value (AD38 cells; Table 9) was 102%.

`COc1ccc(S(=O)(=O)N2CCN(c3nc(C)cc(Nc4ccc(C#N)cc4)n3)C(=O)C2)cc1` [Compound 1352] was tested, and the activity at 10 µM ([1]; Table 9) was 89% and the “AD38 Viability Normalized Result (CPAM/DMSO %) at 10 μM” value (AD38 cells; Table 9) was 96%.

`CCOc1ccc(S(=O)(=O)N2CCN(c3nc(Nc4ccc(C#N)cc4)cc(-c4nccs4)n3)CC2)cc1` [Compound 1353] was tested, and the activity at 10 µM ([1]; Table 9) was 7% and the “AD38 Viability Normalized Result (CPAM/DMSO %) at 10 μM” value (AD38 cells; Table 9) was 107%.

For `CCCCOc1ccc(S(=O)(=O)N2CCN(c3nc(Nc4ccc(C#N)cc4)cc(-c4nccs4)n3)CC2)cc1` [Compound 1354], the activity at 10 µM ([1]; Table 9) was 24% and the “AD38 Viability Normalized Result (CPAM/DMSO %) at 10 μM” value (AD38 cells; Table 9) was 97%.

With `N#Cc1ccc(Nc2cc(-c3nccs3)nc(N3CCN(S(=O)(=O)c4ccccc4)CC3)n2)cc1` [Compound 1355] the activity at 10 µM ([1]; Table 9) was 5% and the “AD38 Viability Normalized Result (CPAM/DMSO %) at 10 μM” value (AD38 cells; Table 9) was 103%.

For `Cc1ccc(S(=O)(=O)N2CCN(c3nc(Nc4ccc(C#N)cc4)cc(-c4nccs4)n3)CC2)cc1` [Compound 1356], the activity at 10 µM ([1]; Table 9) was 6% and the “AD38 Viability Normalized Result (CPAM/DMSO %) at 10 μM” value (AD38 cells; Table 9) was 97%.

`O=S(=O)(c1ccc(OC(F)(F)F)cc1)N1CCN(c2nc(Nc3ccc(F)cc3)cc(-c3nccs3)n2)CC1` [Compound 1357] was tested, and the “AD38 Viral Load (CpAM/DMSO %) at 10 μM” value ([1]; Table 9) was 67% and the “AD38 Viability Normalized Result (CPAM/DMSO %) at 10 μM” value (AD38 cells; Table 9) was 95%.
